The record followed here is the NIST ThermoML archive (doi:10.1016/j.fluid.2009.01.011).

A short description of this series: activity coefficient (dimensionless); of the first substance listed, at infinite dilution; xn = mol fraction of the nth substance listed. The conditions noted are these: Liquid, Chromatography, x1 = 0.

Numbers after ± are expanded uncertainties.

Turning to `C1CCCC1` [cyclopentane] + CCCC[N+]1(C)CCCC1.O=S(=O)([O-])C(F)(F)F, the activity coefficient is, setting by setting: (298.15 K) 19.2 ± 0.9; (308.15 K) 17.4 ± 0.8; (318.15 K) 15.9 ± 0.7; (328.15 K) 14.6 ± 0.6; (338.15 K) 13.5 ± 0.6; (348.15 K) 12.6 ± 0.6. Besides, the activity coefficient is, setting by setting: (358.15 K) 11.7 ± 0.5; (368.15 K) 11 ± 0.5.

`O` [water] + CCCC[N+]1(C)CCCC1.O=S(=O)([O-])C(F)(F)F: the activity coefficient (318.15 K) came to 0.865 ± 0.032; the activity coefficient (328.15 K) turned out to be 0.83 ± 0.032; the activity coefficient (338.15 K) was 0.794 ± 0.031; the activity coefficient (348.15 K) was determined as 0.765 ± 0.031; the activity coefficient (358.15 K) was 0.739 ± 0.03; the activity coefficient (368.15 K) was 0.712 ± 0.03.

Turning to `C1CCCCC1` [cyclohexane] + CCCC[N+]1(C)CCCC1.O=S(=O)([O-])C(F)(F)F, the activity coefficient worked out at 25.7 ± 1.1 (298.15 K); 23.4 ± 1 (308.15 K); 21.4 ± 1 (318.15 K); 19.7 ± 0.9 (328.15 K); 18.1 ± 0.8 (338.15 K); 16.8 ± 0.7 (348.15 K). For the same molecule, the activity coefficient (358.15 K) is 15.6 ± 0.7 and the activity coefficient (368.15 K) came to 14.6 ± 0.6.

Consider `C=CCCCCCC` [oct-1-ene] + CCCC[N+]1(C)CCCC1.O=S(=O)([O-])C(F)(F)F, for which the activity coefficient by setting is: (298.15 K) 40.9 ± 1.8; (308.15 K) 38.4 ± 1.7; (318.15 K) 36.2 ± 1.6; (328.15 K) 34.3 ± 1.5; (338.15 K) 32.7 ± 1.5; (348.15 K) 31.2 ± 1.4. Further, the activity coefficient was found to be 29.8 ± 1.3 (358.15 K) and 28.6 ± 1.3 (368.15 K).

Regarding `Cc1ccccc1C` [1,2-dimethylbenzene] + CCCC[N+]1(C)CCCC1.O=S(=O)([O-])C(F)(F)F, the activity coefficient reads like this: (308.15 K) 2.91 ± 0.13; (318.15 K) 2.93 ± 0.13; (328.15 K) 2.95 ± 0.13; (338.15 K) 2.97 ± 0.13; (348.15 K) 2.99 ± 0.13; (358.15 K) 3.01 ± 0.13. Moreover, the activity coefficient (368.15 K) is 3.03 ± 0.13.

On to `CCCCCCCC` [octane] + CCCC[N+]1(C)CCCC1.O=S(=O)([O-])C(F)(F)F, for which the activity coefficient (298.15 K) came to 95.2 ± 4.3; the activity coefficient (308.15 K) is 86.9 ± 3.9; the activity coefficient (318.15 K) came to 79.4 ± 3.5; the activity coefficient (328.15 K) was 73.1 ± 3.3; the activity coefficient (338.15 K) is 67.2 ± 3; the activity coefficient (348.15 K) worked out at 62.9 ± 2.8. Moreover, the activity coefficient by setting is: (358.15 K) 58.4 ± 2.6; (368.15 K) 54.4 ± 2.4.

For the molecule `CCCCO` [butan-1-ol] + CCCC[N+]1(C)CCCC1.O=S(=O)([O-])C(F)(F)F, the activity coefficient is, setting by setting: (328.15 K) 1.49 ± 0.06; (338.15 K) 1.42 ± 0.06; (348.15 K) 1.35 ± 0.05; (358.15 K) 1.29 ± 0.05; (368.15 K) 1.24 ± 0.05.

For `Cc1cccc(C)c1` [1,3-dimethylbenzene] + CCCC[N+]1(C)CCCC1.O=S(=O)([O-])C(F)(F)F, the activity coefficient runs as follows: (308.15 K) 3.44 ± 0.15; (318.15 K) 3.45 ± 0.15; (328.15 K) 3.47 ± 0.15; (338.15 K) 3.48 ± 0.15; (348.15 K) 3.5 ± 0.15; (358.15 K) 3.51 ± 0.15. Moreover, the activity coefficient (368.15 K) is 3.53 ± 0.16.

Take `COC(C)(C)C` [2-methoxy-2-methylpropane] + CCCC[N+]1(C)CCCC1.O=S(=O)([O-])C(F)(F)F: the activity coefficient came out at 5.67 ± 0.25 (298.15 K); 5.65 ± 0.25 (308.15 K); 5.64 ± 0.25 (318.15 K); 5.63 ± 0.25 (328.15 K); 5.62 ± 0.25 (338.15 K); 5.6 ± 0.25 (348.15 K). Further, the activity coefficient runs as follows: (358.15 K) 5.59 ± 0.25; (368.15 K) 5.58 ± 0.25.

For the molecule `C#CCCCCC` [1-heptyne] + CCCC[N+]1(C)CCCC1.O=S(=O)([O-])C(F)(F)F, the activity coefficient reads like this: (298.15 K) 5.21 ± 0.23; (308.15 K) 5.3 ± 0.23; (318.15 K) 5.39 ± 0.24; (328.15 K) 5.47 ± 0.24; (338.15 K) 5.56 ± 0.25; (348.15 K) 5.64 ± 0.25. Further, the activity coefficient runs as follows: (358.15 K) 5.7 ± 0.25; (368.15 K) 5.78 ± 0.25.
